One molecule from publication PMC8879825, “Identification of α-Glucosidase Inhibitors from Scutellaria edelbergii: ESI-LC-MS and Computational Approach” (Molecules, 2022) can be followed below.

For this assay, the target named is yeast α-glucosidase enzymes. The assay is described as follows: α-Glucosidase inhibitory assay. It counts as biochemical. The conditions noted are these: substrate p-nitrophenyl-α-D-glucopyranoside, pH 6.8, 37 °C.

In brackets after ≈: the same amount, converted by molar mass.

Experimental: The α-glucosidase assay was performed using 50 mM phosphate buffer (pH 6.8). All samples were dissolved in DMSO. An enzyme (2 U/2 mL) 20 µL/well and test samples (0.5 mg/mL) 20 µL/well and 135 µL/well phosphate buffer were loaded into a 96-well plate, followed by 15 min of incubation at 37 °C. Substrate p-nitrophenyl-α-D-glucopyranoside (0.7 mM) 25 µL/well was added to the 96-well plate after 15 min of incubation, and readings were measured at 400 nm for 30 min. DMSO 7% was used as a positive control. Percent inhibition was calculated by using the following formula [30]. % Inhibition=100×O.D of tested samples/O.D. of control−100
OD is the optical density of the tested samples.

On to `C[C@H]1O[C@H](O[C@H]2[C@H](O)[C@@H](O)[C@@H](O[C@H]3[C@H](O)[C@@H](O)C(O)O[C@@H]3CO)O[C@@H]2CO)[C@H](O)[C@@H](O)[C@@H]1N[C@H]1C=C(CO)[C@@H](O)[C@H](O)[C@H]1O` (stereo partly shown) [acarbose], for which the “IC50 (α-glucosidase inhibition)” value worked out at 377.26 ± 1.20 µg/mL (≈ 584 µM).
